Experimental findings from patent US11202871B2, “Devices for evaporation and inhalation of active agents” (Emplicure AB, priority 2016, dated 2021) are described below.

Where a name gives a salt, the structure may show the parent alone. Read-outs that look alike come from different tables or passages of the source.

For data set [1] the following is noted: calcium sulphate coins, solution 50 μl, 5 mg/ml dispensed; oven approx. 250° C., 0 to 15 minutes. The method, then: Calcium sulphate alpha hemihydrate (CaS) was obtained from Bo Ehrlander AB (Sweden). Clonidine hydrochloride was obtained from PCAS (Finland). Shaped silicon rubbers were used as molds for coins (diameter: 12 mm, thickness: 2 mm). The calcium sulphate was mixed with deionised water (Liquid/Powder ratio of 0.4 (w/w)) to form a homogenous paste, which was used to fill the rubber molds. When the paste was applied, the molds were set to dry for at least 12 h under ambient conditions.
Clonidine hydrochloride solution (50 μl, 5 mg/ml) was dispensed onto the calcium sulphate coins. When the solution was applied, the coins were set to dry for at least 12 h under ambient conditions.
The temperature was set to approximately 250° C.
(§1) Each coin was weighed and immersed into a beaker containing 200 ml of deionised water. […] The sample was characterized by Shimadzu LC-2030 (Germany) HPLC system with a Genesis C18 analytical column 4 μm (100×2.1 mm i.d.) with a mobile phase of acetonitrile/phosphoric acid, pH 3 (11/89). The wavelength was set to 220 nm.
The reference samples represent the amount of clonidine hydrochloride that was loaded before heat treatment.

Excerpt in data set [2]: Calcium sulphate alpha hemihydrate (CaS) was obtained from Bo Ehrlander AB (Sweden). Clonidine hydrochloride was obtained from PCAS (Finland). Shaped silicon rubbers were used as molds for coins (diameter: 12 mm, thickness: 2 mm). The calcium sulphate was mixed with powder of Clonidine hydrochloride (0.07 g Clonidine hydrochloride/g calcium sulphate) and deionised water (Liquid/Powder ratio of 0.4 (w/w)) to form a homogenous paste, which was used to fill the rubber molds. Once the paste had been applied, the molds were set to dry for at least 12 h under ambient conditions.
The oven temperature was set to approximately 250° C.
as §1
The reference samples represent the amount of clonidine hydrochloride mg/g calcium sulphate that was loaded before heat treatment.

Data set [3] in a line: Oven heating of aluminium oxide ceramic discs loaded with ibuprofen; amount remaining by UV. The class given is physicochemical. To be noted: Al2O3 discs, oven 250° C. for 15 minutes.
Description: Ceramic discs comprising ibuprofen (IOL Chemicals and Pharmaceuticals Ltd, India) were prepared using aluminium oxide (Al2O3; Keranova, Sweden) as follows.
(§2) Ceramic discs (Al2O3) with different pore sizes (0.25, 1, 6, 15 and 30 μm) were prepared in two sizes: (i) 63 mm in diameter and 6.3 mm in thickness (pore sizes 0.25, 1 and 6 μm); and (ii) 48 mm in diameter and 6.3 mm in thickness (pore sizes 15 and 30 μm). The porosity was approximately 40% vol and the density 3.75 g/cm^3 for all discs according to product specification.
The discs (pore sizes 0.25, 1, 6, 15 and 30 μm) were soaked in a 400 ml in phosphate buffer with pH 7.4 (one phosphate buffer saline tablet (Sigma-Aldrich, USA) dissolved in 200 ml deionized water) with a concentration of 408.5 μg/ml ibuprofen for 24 hours. The discs were dried in room temperature for 24 hours. […] All discs were measured for concentration of ibuprofen in 400 ml phosphate buffer pH 7.4 at 37° C. (USP paddle method (paddle speed 50 rpm), VanKel 7025, Varian Inc, USA) and the concentration for ibuprofen was measured using a UV spectrophotometer Shimadzu 1800, Japan at a wavelength of 220 nm to determine the amount of ibuprofen in the ceramic discs. The amount of ibuprofen in control discs was measured after 15 hours (i.e. after maximum drug release) and in heat treated discs after 1.5 hours (i.e. the maximal amount drug was at this time point released).
For data set [4] the following is noted: Al2O3 discs, oven 188° C. for 15 minutes.
Description: as §2
The discs were dried in room temperature for 24 hours. The discs were heated in an oven at 188° C. for 15 minutes, the control discs were not heated.
The conditions of data set [5]: Liquid/Powder 0.4 (w/w). Here is the method: Calcium sulphate alpha hemihydrate (CaS) was obtained from Bo Ehrlander AB (Sweden). Shaped silicon rubbers were used as molds for coins (diameter: 12 mm, thickness: 2 mm). The calcium sulphate was mixed with a nicotine solution with a concentration of 5 or 20 mg/ml of nicotine (Liquid/Powder ratio of 0.4 (w/w)) to form a homogenous paste, which was filled in the rubber molds. Once the paste was applied, the molds were set to dry for at least 12 h under ambient conditions.
The temperature was set to approximately 200° C.
The sample was characterized by UV-spectrophotometer at a wavelength of 219 nm. The amount nicotine in the samples were then calculated.

The conditions of data set [6]: calcium sulphate rods soaked 24 hours in pure nicotine; heated 5*10 sec.; max 315° C., 6 W. The source says: Aluminium oxide ceramic rods and calcium sulphate rods were obtained as described in Example 3. Nicotine and nicotine solutions were supplied and applied, and nicotine levels were detected as described in Example 3.
Samples were heated using a prototype e-cigarette device (X-Cube II, Smoke) obtained from Devex Mekatronik AB (Sweden). The device is derived from the commercially available e-cigarette X-Cube.
The sample in the device was heated up by a coil that is wrapped around the sample.
The end of the device was connected to a vial via a silicon hose. The vial contained 1 ml of deionised water. To simulate smoking a rod was put into the device and puffing was performed. Puffing involves a sequence of 5 puffs that are each 10 seconds long. After puffing, the hose was removed and flushed with the water. The water was analysed for concentration of nicotine.

For data set [7] the following is noted: calcium sulphate coins, nicotine solution 50 μl, 18 mg/ml dispensed. The source says: Calcium sulphate coins were obtained as described in Example 3. For the indirect induction test a magnet was molded into the coin. Nicotine and nicotine solutions were supplied and applied, and nicotine levels were detected as described in Example 3.
Metal plate for induction cooker was obtained from Haneström (Sweden). Induction cooker Wilfa ICP-2000 was obtained from Media Markt (Sweden). Magnets (10*1 mm, Samarium Cobalt magnets, 0.4 kg pull) were obtained from first4magnets (UK). IR-thermometer (MS6520A) was obtained from Mastech (USA).
Heat treatment by indirect induction was carried out by placing a metal plate onto the induction cooker. The ceramic coins containing a magnet was applied onto the metal plate and heated on maximum effect (exact temperature was not measured; see FIG. 10).

The conditions of data set [8]: for amount of nicotine detected in the reference sample (not heated) / nicotine detected in coins after heating versus reference: pure nicotine (20 mg) dispensed; for amount of nicotine detected in the reference sample (not heated): dried 24 hours.
A short description of data set [9]: Oven heating of calcium sulphate coins pre-loaded with sumatriptan succinate. To be noted: pre-loaded calcium sulphate coins (0.07 g/g calcium sulphate); oven approx. 250° C. The data set is classed as physicochemical.
Data set [10] in a line: Oven heating of Al2O3 rods soaked in sumatriptan succinate solution. The data set is classed as physicochemical. The source says: Aluminium oxide ceramic rods were obtained from […] (Sweden): […] Oven […] 218 was obtained from Wilfa, (Norway).
[11] abbreviates: calcium sulphate rods soaked in pure nicotine, oven approx. 200° C.

As to `Clc1cccc(Cl)c1N=C1NCCN1` [clonidine hydrochloride], in data set [1], the “amount of clonidine hydrochloride present in the coins during heating” value is recorded as “decreased significantly over time”. Besides, the “amount of clonidine hydrochloride contained in a coin” value in data set [2] (calcium sulphate coins, 0.07 g clonidine hydrochloride/g calcium sulphate, coin approx. 0.3 g) is reported as “approximately 17 mg”. Also, the “time within which almost all of the clonidine hydrochloride was released when heated” value in data set [2] (pre-loaded calcium sulphate coins, oven approx. 250° C.) is no more than 15 min.
With `CC(C)Cc1ccc(C(C)C(=O)O)cc1` (stereo not drawn) [ibuprofen], the “amount of ibuprofen remaining after heat treatment” value in data set [3] (pore sizes 0.25, 1, 6, 15 and 30 μm, all samples) was “zero”. In addition, in data set [3], the “degradation of ibuprofen on heating (changes in absorbance at other wavelengths)” value is reported as “no significant degradation”.
With `CN1CCCC1c1cccnc1` (stereo not drawn) [nicotine], in [4] (pore sizes 0.25, 6, 15 and 30 μm, all samples), the “amount of nicotine remaining after heat treatment compared to pre-heat treatment control” value was “very significantly reduced”. The “degradation of nicotine on heating (changes in absorbance at other wavelengths)” value in [4] is recorded as “no significant degradation”. Also, the “amount of nicotine contained in the coins” value in [5] (calcium sulphate coins mixed with 5 mg/ml nicotine solution) is “approximately 180 μg”; in data set [5] (calcium sulphate coins mixed with 20 mg/ml nicotine solution), roughly 390 µg. In addition, the “nicotine release on heat treatment in e-cigarette device” value in data set [6] is given as “a heat treatment in the device will result in a nicotine release”. For the same compound, the “nicotine release on induction heating, unheated plate” value in [7] (heated about 1 or about 5 minutes) is “Most of the nicotine was released within the first minute”. The “nicotine release on induction heating, pre-heated plate” value in [7] (plate at least 150° C., heated 5 seconds) is given as “a substantial quantity of nicotine was released”. For the same compound, in [8] (aluminium oxide rods soaked in 6 mg/ml nicotine solution (diluted e-juice) 24 hours, oven approx. 200° C.), the “time within which almost all of the nicotine was released when heated” value is 5 to 10 min. The “amount of nicotine the rods were able to absorb” value in data set [8] (aluminium oxide rods soaked in 6 mg/ml nicotine solution for 24 hours) is recorded as “approximately 135 μg nicotine/rod”; in [8] (calcium sulphate rods soaked in pure nicotine for 24 hours), “approximately 20 mg nicotine/rod”. Besides, the “amount of nicotine detected in the reference sample (not heated)” value was “lower than 20 mg” in data set [8] (calcium sulphate coins) and “about 16 mg” in data set [8] (geopolymer coins). The “nicotine detected in coins after heating versus reference” value in data set [8] (calcium sulphate coins, oven approx. 200° C.) is listed as “a lower release of nicotine was detected after heating”; in data set [8] (geopolymer coins, oven approx. 200° C.) it was “a lower release of nicotine was detected after heating”. The “nicotine release during heating” value in data set [8] (setting [11]) is “Most of the nicotine was released during heating”. The “nicotine release, 5 min versus 1 min of heating” value in [8] (setting [11]) was “a higher amount was released during 5 min of heating compared to 1 min of heating”.
Regarding `CNS(=O)(=O)Cc1ccc2[nH]cc(CCN(C)C)c2c1` [sumatriptan succinate], the “time within which almost all of the sumatriptan succinate was released when heated” value in [9] was no more than 15 min; in [10] (Al2O3 rods soaked in 20 mg/ml solution, oven approx. 300° C.), 5 to 15 min. Also, the “amount of sumatriptan succinate the rods were able to absorb” value in data set [10] (Al2O3 rods soaked in 20 mg/ml solution for 24 hours) was “approximately 1 mg sumatriptan succinate/rod”.
